Test system: 521955-158-R2-J5-PDC complex spheroid viability
Assay: Anticancer human tumor 521955-158-R2-J5-PDC patient-derived pancreatic carcinoma cell line growth inhibition
Conditions: for IC50: curve of first compound; for viability, T/C: stronger effect = lower value
In short: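 Multicellular complex spheroids of tumor cells with human endothelial cells (HUVEC) and mesenchymal stem cells; the LSD1 inhibitor iadademstat was combined with standard-of-care or investigational agents. Top concentration at or near clinical Cmax, half-log dilutions; final DMSO ≤0.25%.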

[1] = second compound 0.1 µM, first compound 0.0316 µM
[2] = second compound 0.1 µM, first compound 0.1 µM
[3] = second compound 0.1 µM, first compound 0.316 µM
[4] = second compound 0.1 µM, first compound 1 µM
[5] = second compound 0.1 µM, first compound 3.16 µM
[6] = second compound 0.1 µM, first compound 10 µM
[7] = second compound 0.316 µM, first compound 0.0316 µM
[8] = second compound 0.316 µM, first compound 0.1 µM
[9] = second compound 0.316 µM, first compound 0.316 µM
[10] = second compound 0.316 µM, first compound 1 µM
[11] = second compound 0.316 µM, first compound 3.16 µM
[12] = second compound 0.316 µM, first compound 10 µM
[13] = second compound 1 µM, first compound 0.0316 µM
[14] = second compound 1 µM, first compound 0.1 µM
[15] = second compound 1 µM, first compound 0.316 µM
[16] = second compound 1 µM, first compound 1 µM
[17] = second compound 1 µM, first compound 3.16 µM
[18] = second compound 1 µM, first compound 10 µM
[19] = second compound 3.16 µM, first compound 0.0316 µM
[20] = second compound 3.16 µM, first compound 0.1 µM
[21] = second compound 3.16 µM, first compound 0.316 µM
[22] = second compound 3.16 µM, first compound 1 µM
[23] = second compound 3.16 µM, first compound 3.16 µM
[24] = second compound 3.16 µM, first compound 10 µM
[25] = second compound 10 µM, first compound 0.0316 µM
[26] = second compound 10 µM, first compound 0.1 µM
[27] = second compound 10 µM, first compound 0.316 µM
[28] = second compound 10 µM, first compound 1 µM
[29] = second compound 10 µM, first compound 3.16 µM
[30] = second compound 10 µM, first compound 10 µM
[31] = second compound 0.1 µM, first compound 0.00316 µM
[32] = second compound 0.1 µM, first compound 0.01 µM
[33] = second compound 0.316 µM, first compound 0.00316 µM
[34] = second compound 0.316 µM, first compound 0.01 µM
[35] = second compound 1 µM, first compound 0.00316 µM
[36] = second compound 1 µM, first compound 0.01 µM
[37] = second compound 3.16 µM, first compound 0.00316 µM
[38] = second compound 3.16 µM, first compound 0.01 µM
[39] = second compound 10 µM, first compound 0.00316 µM
[40] = second compound 10 µM, first compound 0.01 µM
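Note: spheroids exposed to agents for seven days.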
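Throughout, for viability, T/C: percent of DMSO vehicle control luminescence viability.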

| Compound | IC50 (second compound 0.1 µM) [nM] | IC50 (second compound 0.316 µM) [nM] | IC50 (second compound 1 µM) [nM] | IC50 (second compound 3.16 µM) [nM] | IC50 (second compound 10 µM) [nM] | viability, T/C [1] [%] | viability, T/C [2] [%] | viability, T/C [3] [%] | viability, T/C [4] [%] | viability, T/C [7] [%] | viability, T/C [8] [%] | viability, T/C [9] [%] | viability, T/C [10] [%] | viability, T/C [13] [%] | viability, T/C [14] [%] | viability, T/C [15] [%] | viability, T/C [16] [%] | viability, T/C [19] [%] | viability, T/C [20] [%] | viability, T/C [21] [%] | also measured |
| --- | --- | --- | --- | --- | --- | --- | --- | --- | --- | --- | --- | --- | --- | --- | --- | --- | --- | --- | --- | --- | --- |
| CC(C)c1c(-c2ccccc2)nc2c(C#N)c[nH]n2c1=O + NC1CC1c1ccc(-c2cccc(O)c2)cc1 | > 10000 | > 10000 | > 10000 | > 10000 | 3300 | 48.6 | 55.6 | 62.2 | 46.3 | 54.5 | 55.9 | 60.8 | 56.3 | 65.5 | 70.8 | 72.2 | 58.8 | 57.6 | 67.2 | 71.3 | viability, T/C [5]: 54.8%; viability, T/C [6]: 56.8%; viability, T/C [11]: 54.5%; viability, T/C [12]: 46.8%; viability, T/C [17]: 60.6%; viability, T/C [18]: 49.5%; viability, T/C [22]: 69.8%; viability, T/C [23]: 58.3%; viability, T/C [24]: 39.7%; viability, T/C [25]: 62.9%; viability, T/C [26]: 72.7%; viability, T/C [27]: 70.2%; viability, T/C [28]: 61.8%; viability, T/C [29]: 50.9%; viability, T/C [30]: 41.3% |
| CC1COCCN1c1cc(-c2ccnn2C)c2ccnc(-c3ccn[nH]3)c2n1 (stereo not given) + NC1CC1c1ccc(-c2cccc(O)c2)cc1 | < 3.16 | < 3.16 | < 3.16 | < 3.16 | < 3.16 | 17.3 | 25.2 | 29.5 | 10.9 | 17.9 | 26.1 | 28.5 | 10.6 | 18.9 | 25.4 | 26.6 | 10.6 | 21.1 | 24.9 | 26.1 | viability, T/C [31]: 15.7%; viability, T/C [32]: 16.1%; viability, T/C [33]: 23.3%; viability, T/C [34]: 16.2%; viability, T/C [35]: 22.9%; viability, T/C [36]: 19.6%; viability, T/C [37]: 22.8%; viability, T/C [38]: 19.7%; viability, T/C [22]: 9.32%; viability, T/C [39]: 26.7%; viability, T/C [40]: 22.6%; viability, T/C [25]: 22.5%; viability, T/C [26]: 26.9%; viability, T/C [27]: 22.4%; viability, T/C [28]: 9.48% |
| COc1ccc([C@@H](O)c2cc(-c3ncnc4cc(N5CCOCC5)ccc34)c(F)cc2Cl)nn1 + NC1CC1c1ccc(-c2cccc(O)c2)cc1 | 1230 | 1640 | 1310 | 1210 | 836 | 72.7 | 78.3 | 73.6 | 49.9 | 74.3 | 69.5 | 68.2 | 57.6 | 76.1 | 72 | 63.1 | 55.5 | 74.5 | 78.7 | 65.4 | viability, T/C [5]: 36.5%; viability, T/C [6]: 21.6%; viability, T/C [11]: 39.9%; viability, T/C [12]: 20.6%; viability, T/C [17]: 37.3%; viability, T/C [18]: 20.5%; viability, T/C [22]: 53.1%; viability, T/C [23]: 35.2%; viability, T/C [24]: 21.7%; viability, T/C [25]: 75.3%; viability, T/C [26]: 70.6%; viability, T/C [27]: 59.8%; viability, T/C [28]: 49.9%; viability, T/C [29]: 31.8%; viability, T/C [30]: 21.6% |
| O=C(C=Cn1cnc(-c2cc(C(F)(F)F)cc(C(F)(F)F)c2)n1)NNc1cnccn1 + NC1CC1c1ccc(-c2cccc(O)c2)cc1 | 219 | 205 | 168 | 75 | 17.8 | 85.6 | 65.6 | 42.5 | 23.1 | 78.5 | 78 | 34.2 | 22.7 | 79.3 | 53.6 | 40.5 | 19.4 | 52.2 | 50.4 | 36.9 | viability, T/C [31]: 81.3%; viability, T/C [32]: 75%; viability, T/C [33]: 69.8%; viability, T/C [34]: 79.1%; viability, T/C [35]: 65.1%; viability, T/C [36]: 66.5%; viability, T/C [37]: 67.2%; viability, T/C [38]: 61.2%; viability, T/C [22]: 17.5%; viability, T/C [39]: 56.6%; viability, T/C [40]: 56.9%; viability, T/C [25]: 43.6%; viability, T/C [26]: 36.5%; viability, T/C [27]: 24.7%; viability, T/C [28]: 16.8% |
